This is an account of results in patent US12138034B2, “Gastroretentive articles for alcohol sensing” (priority 2020, dated 2024).

“Also recorded” adds a separate entry of the source.

Format in all cases: physicochemical
Data set [1] can be described thus: Stability of drug-polymer pills in SGF (polymer protection metric). The settings on record: 3 days in SGF, 37° C., 200 rpm, n=3. On the procedure: Drug-polymer pills were incubated in a shaking incubator at 37° C. and 200 rpm in 50 mL of SGF for 3 days with fluid replaced every day. Then, drug-polymer pills were transferred to acetonitrile for extraction of drug from the polymer pill. The average of extracted amount (n=3) was normalized to the average of extracted drug from drug-polymer pills placed directly in acetonitrile (n=3) to yield the polymer protection metric plotted. PCL protects 89.75% of sofosbuvir, 82.39% of daclatasvir, and 87.11% of ribavirin. Silicone protected 98.96% of ledipasvir.

Data set [2] can be described thus: In vitro drug release from individual drug-polymer pills. Conditions: 37° C., 200 rpm, 50 mL fluid; varying PCL molecular weight, coating, drug loading, SA/V ratio, excipients. An excerpt: FIGS. 11A-11E show fabrication and in vitro release of direct-acting antivirals (DAAs) from individual drug-polymer pills, according to one set of embodiments. FIG. 11A. Drug-polymer pills are made by mixing drug with either silicone or poly(ε-caprolactone) (PCL) and then casting into a Petri dish or a three-dimensional (3-D) printed mold. Drug-silicone pills are extracted using a biopsy punch, and drug-PCL pills are extracted with a razor blade. Pills are then spray-coated with a pan coater. A cross-sectional image of a PCL-coated drug-PCL pill is shown. FIG. 11B. In vitro release of sofosbuvir from a drug pill in water with varying molecular weight of PCL. FIG. 11C. In vitro release of daclatasvir from a drug pill in water with varying molecular weight of PCL and PCL coating. FIG. 11D. In vitro release of ledipasvir from a drug pill in acetonitrile with varying silicone hardness. FIG. 11E. In vitro release of ribavirin from a drug pill in water with molecular weight of PCL and drug loading percentage. Error bars represent SD for n=3 samples.
LA-DAAS prototyping and in vitro drug release. LA-DAAS were assembled and in vitro drug release was evaluated by High-Performance Liquid Chromatography (HPLC) as previously described, with modifications including novel formulations for DAAs (FIGS. 14A-14B).(17) The following drugs were acquired: sofosbuvir (Hefei Hirisun Pharmatech Co., Ltd, Hefei, China), daclatasvir and ledipasvir (Hangzhou APIChem Technology Co, Ltd., Hangzhou, Zhejiang, China), and ribavirin (ChemShuttle, Hayward, CA). […] Drug loading percentages were determined relative to the final polymer mixture weight: sofosbuvir (50%), daclastasvir (40%), ledipasvir (40%), and ribavirin (40%). […] Drug concentrations were then analyzed using an Agilent 1260 Infinity II HPLC system. […] For evaluation of the safety and residence time of the LA-DAAS, the animals were clinically assessed twice a day for evidence of GI obstruction including inappetence, abdominal distension, lack of stool, and vomiting. […]

Data set [3] in a line: Stability of DAAs in simulated gastric fluid (SGF, pH=2), HPLC. On the procedure:
FIGS. 17A-17C show stability of DAAs in simulated gastric fluid (SGF, pH=2), according to one set of embodiments. All DAAs were dissolved in SGF and placed in a shaking incubator (200 rpm, 37° C.). Samples were collected at defined time points for up to 4 weeks and analyzed by HPLC to quantify stability. […] FIG. 17A. Stability of sofosbuvir in SGF. FIG. 17B. Stability of daclatasvir in SGF. FIG. 17C. Stability of ribavirin in SGF. Error bars represent SD for n=3 samples in each group.

Take `COC(=O)N[C@H](C(=O)N1CC2(CC2)C[C@H]1c1ncc(-c2ccc3c(c2)C(F)(F)c2cc(-c4ccc5nc([C@@H]6[C@H]7CC[C@H](C7)N6C(=O)[C@@H](NC(=O)OC)C(C)C)[nH]c5c4)ccc2-3)[nH]1)C(C)C` [ledipasvir]: the “polymer protection (drug extracted after SGF, normalized to pills placed directly in acetonitrile)” value in data set [1] (drug-silicone pill) turned out to be 98.96%. Also, in data set [2], the “in vitro release rate from drug-polymer pills (trend, words)” value (“in vitro release rate” for short) was “faster release rate”. Besides, the “stability in SGF” value in data set [3] (SGF pH=2, no HPLC signal detected at t=0) is listed as “degraded immediately in acid”.
In the case of `NC(=O)c1ncn([C@@H]2O[C@H](CO)[C@@H](O)[C@H]2O)n1` [ribavirin], the “polymer protection (drug extracted after SGF, normalized to pills placed directly in acetonitrile)” value in data set [1] (drug-PCL pill) is 87.11%. For the same compound, the “in vitro release rate” value in data set [2] was “increased at higher PCL molecular weight and with a higher drug loading percentage”.
For the compound `CC(C)OC(=O)[C@H](C)N[P@](=O)(OC[C@H]1O[C@@H](n2ccc(=O)[nH]c2=O)[C@](C)(F)[C@@H]1O)Oc1ccccc1` [sofosbuvir], the “polymer protection (drug extracted after SGF, normalized to pills placed directly in acetonitrile)” value in data set [1] (drug-PCL pill) is given as 89.75%. Besides, the “in vitro release rate” value in data set [2] was “increased as the molecular weight of PCL increased from 25,000 to 80,000; also recorded: Increasing the surface area to volume ratio of the pill also increased the sofosbuvir release rate; also recorded: increases the release rate of sofosbuvir; also recorded: Drug release increases as the SA/V ratio increases”. Also, the “degradation in SGF” value in data set [3] (SGF pH=2, 37° C., 200 rpm, within 7 days) is given as 95%.
